Patent US9404080B2, “Human taste cells capable of continuous proliferation” (B.R.A.I.N. BIOTECHNOLOGY RESEARCH AND INFORMATION NETWORK AG, priority 2012, dated 2016)
Entries after “also recorded” stand apart in the source; their conditions may differ.

Legend:
[1] = test system: human taste cells BR-HTC8; assay: FLIPR fluorescent membrane potential (FMP) imaging assay in BR-HTC8; format: cell-based; conditions: for change of cellular membrane potential (FLIPR FMP dye fluorescence) on addition of the test molecule: BR-HTC8, increasing concentrations in KH-buffer; for FMP assay BR-HTC8: dose-dependent decrease in cellular membrane potential on stimulation with the cognate bitter molecule of the TAS2R; on FMP assay BR-HTC8: key: + indicates that the analysis was successful and that the mRNA was detected by RT-PCR or that stimulation of human taste cells with the respective taste molecule resulted in a dose-dependent increase in intracellular calcium or decrease in cellular membrane potential
Experimental: This cell depolarization was measured by using voltage-sensitive dyes including FLIPR fluorescent membrane potential (FMP) dye (Molecular Devices R8123). Before the assay, cells were maintained in HTC medium for at least 48 hours as described above in Example 1. Cells were then trypsinized with accutase (e.g. PAA, L11-007) or TrypLE (e.g. Gibco, 12563) and seeded into poly-D-lysine coated 96-well assay plates (Corning) at a density of 15,000 cells/well in […].
After 24 hours, medium was removed and the cells are washed once with 100 μl KH buffer (10 mM HEPES pH7.4 containing 118 mM NaCl, 4.7 mM KCl, 4.2 mM NaHCO3, 1.2 mM KH2PO4, 1.2 mM MgSO4, 1.3 mM CaCl2) and then stained with 200 μl KH buffer containing FLIPR FMP dye according instructions of the manufacturer […] and incubation for 2 hours at 37° C. The plates were then transferred into a fluorescence microplate reader to monitor changes in membrane potential-dependent fluorescence (excitation 530 nm, emission 565 nm) after the addition of 50 μl KH-buffer supplemented with the test molecule under investigation. The test molecule was added 16 seconds after starting the scan and baseline recording, mixed twice, and then recording continued for additional 74 seconds. Data points of a total of 35 reads were collected.
Data analysis/Data recording—Changes of the membrane potential was measured as the change of peak fluorescence (ΔF) over the baseline level (F). Data were expressed as the mean S.E. of the ΔF/F value of replicated independent samples. Data analysis was done with software provided by the manufacturer of the microplate reader (Molecular Devices).
(§1) To test, whether stimulation of human taste cells with taste molecules leads to changes in cellular membrane potential the FLIPR fluorescent membrane potential assay was performed as described above. Non-taste cells including HEK293 cells and non-lingual, proliferating primary cells isolated from the oral cavity served as a control and were treated equally throughout the procedure. Changes in membrane potential were recorded on a Molecular Devices Fluorescence microplate reader. Measurement was started by addition of increasing concentrations of the taste molecules in KH-buffer to the cells. KH-buffer served as negative control and KH-buffer containing 4 μM FCCP (e.g. Sigma, C2920) served as a positive control. […] Data were obtained from several independent experiments and performed in triplicates.
as §1, with “This cell depolarization can be measured by using voltage-sensitive dyes including FLIPR fluorescent membrane potential (FMP) dye (Molecular Devices R8123) as described above in Example 6. To” for “To”, “oxytocin” for “taste molecules”, “oxytocin” for “the taste molecules”

[2] = test system: human taste cells BR-HTC8; assay: Fluo-4 fluorescent calcium imaging assay in BR-HTC8; format: cell-based; conditions: for change of Fluo4-fluorescence / intracellular calcium on addition of the test molecule: BR-HTC8, increasing concentrations in KH-buffer with Ca2+; for Fluo-4 assay BR-HTC8: dose-dependent increase in intracellular calcium on stimulation with the cognate bitter molecule of the TAS2R named in the row; on Fluo-4 assay BR-HTC8: key: + indicates that the analysis was successful and that the mRNA was detected by RT-PCR or that stimulation of human taste cells with the respective taste molecule resulted in a dose-dependent increase in intracellular calcium or decrease in cellular membrane potential
Experimental: Before the assay, cells are maintained in HTC medium for at least 48 hours as described in Example 1. Cells are then trypsinized with accutase (e.g. PAA, L11-007) or TrypLE (e.g. Gibco, 12563) and seeded into poly-D-lysine coated 96-well assay plates (e.g. Corning) at a density of 15,000 cells/well in 100 μl HTC medium.
After 24 hours, the cells (still in 100 μl medium) are stained by addition of 100 μl of Fluo-4 staining solution, which consists of KH buffer (10 mM HEPES pH7.4 containing 118 mM NaCl, 4.7 mM KCl, 4.2 mM NaHCO3, 1.2 mM KH2PO4, 1.2 mM MgSO4, 1.3 mM CaCl2) containing 4 μM Fluo-4 (Molecular Probes) and incubation for 1 hour at 37° C. Final Fluo-4 concentration in the staining solution/medium mixture is 2 μM. Staining solution is then replaced by 80 μl KH-buffer per well and plates are transferred into a fluorescence microplate reader to monitor changes in Ca^2+-dependent fluorescence (excitation 488 nm, emission 530 nm) after the addition of 20 μl KH-buffer supplemented with the test molecule under investigation. The test molecule was added 16 seconds after starting the scan and baseline recording, mixed twice, and then recording continued for additional 44 seconds. Data points of a total of 18 reads were collected. Data analysis/Data recording—Calcium mobilization was measured as the change of peak fluorescence (ΔF) over the baseline level (F). Data were expressed as the mean S.E. of the ΔF/F value of replicated independent samples. Data analysis was done with software provided by the manufacturer of the microplate reader (e.g. Molecular Devices).
(§2) To test, whether stimulation of human taste cells with these taste molecules leads to changes in intracellular calcium the Fluo-4 fluorescent calcium imaging assay was performed as described above. Non-taste cells including HEK293 cells and non-lingual, proliferating primary cells isolated from the oral cavity served as a control and were treated equally throughout the procedure. Changes in Ca^2+-dependent Fluo-4 fluorescence were recorded on a Molecular Devices Fluorescence microplate reader. Measurement was started by addition of increasing concentrations of the taste molecules in KH-buffer to the cells. KH-buffer served as negative control and KH-buffer containing 1 μM ionomycin served as a positive control. […] Calcium signals for each test molecule are depicted as Relative Fluorescence Units (RFU), which means that calcium mobilization in response to taste molecules was calculated dF/F0, with dF is (peak fluorescence F1−baseline fluorescence F0). […] Data were obtained from several independent experiments and performed in triplicates.
In order to perform to the Fluo-4 fluorescent calcium imaging experiment in the absence of extracellular Ca^2+ the procedure was conducted as described above, however, the KH-buffer was prepared without addition of Ca^2+. Measurement was started by addition of increasing concentrations of the taste molecules in KH-buffer without Ca^2+ to the cells. KH-buffer without Ca^2+ served as negative control and KH-buffer without Ca^2+ containing 1 μM ionomycin served as a positive control.
To test, whether stimulation of human taste cells with oxytocin leads to changes in intracellular calcium the Fluo-4 fluorescent calcium imaging assay was performed as described above in Example 5. Briefly, the human taste cells were seeded in 96-well plates and stained with 2 μM of the calcium-sensitive fluorescence dye Fluo4 in HTC/KH buffer medium for one hour at 37° C. with subsequent replacement of the staining solution with KH-buffer. Non-taste cells including HEK293 cells and non-lingual, proliferating primary cells isolated from the oral cavity served as a control and were treated equally throughout the procedure. Changes in Ca^2+-dependent Fluo-4 fluorescence were recorded on a Molecular Devices Fluorescence microplate reader.

[3] = test system: Non-taste cells including HEK293 cells, Cal33 cells, and non-lingual, proliferating primary cells isolated from the oral cavity; assay: Fluo-4 fluorescent calcium imaging assay in non-taste control cells; format: cell-based, human
Experimental: Briefly, human taste cells were seeded in 96-well plates and stained with Fluo4-AM. Non-taste cells including HEK293 cells, Cal33 cells, and non-lingual, proliferating primary cells isolated from the oral cavity served as a control. Changes in Ca^2+-dependent Fluo-4 fluorescence were recorded on a Molecular Devices fluorescence microplate reader. Measurement was started by addition of increasing concentrations of the taste molecules. […] Calcium signals for each test molecule are depicted as relative fluorescence units (RFU).
as §2

BR-HTC38 cells = assay: Fluo-4 fluorescent calcium imaging assay in TAS2R38-transduced BR-HTC38; format: cell-based, human; conditions: BR-HTC38 (TAS2R38 expressed) vs BR-HTC8
Experimental: Changes in Ca^2+-dependent Fluo-4 fluorescence were recorded on a Molecular Devices fluorescence microplate reader. Measurement was started by addition of increasing concentrations of the taste molecules in KH-buffer to the cells. KH-buffer served as negative control and KH-buffer containing 1 μM ionomycin served as a positive control. […] Calcium signals for each test molecule are depicted as Relative Fluorescence Units (RFU), which means that calcium mobilization in response to taste molecules was calculated dF/F0, with dF is (peak fluorescence F1−baseline fluorescence F0). […] Data were obtained from several independent experiments and performed in triplicates.

Nc1ncnc2c1ncn2[C@@H]1O[C@H](COP(=O)(O)OP(=O)(O)OP(=O)(O)O)[C@@H](O)[C@H]1O [ATP, adenosine triphosphate]
change of cellular membrane potential (FLIPR FMP dye fluorescence) on addition of the test molecule [1]: dose-dependent decrease in cellular membrane potential; also recorded: dose-dependent decrease of membrane potential | change of Fluo4-fluorescence / intracellular calcium on addition of the test molecule [2]: increase in intracellular calcium

CC1=CC(=O)[N-]S(=O)(=O)O1.[K+] [Acesulfame K]
change of cellular membrane potential (FLIPR FMP dye fluorescence) on addition of the test molecule [1]: decrease in cellular membrane potential | FMP assay BR-HTC8 [1]: + | change of Fluo4-fluorescence / intracellular calcium on addition of the test molecule [2]: do not trigger an increase in intracellular calcium | Fluo-4 assay BR-HTC8 [2]: +

COc1cccc2c1cc([N+](=O)[O-])c1c(C(=O)O)cc3c(c12)OCO3 [Aristolochic acid]
increase of Fluo4-fluorescence in control cells [3]: not in control cells | change of cellular membrane potential (FLIPR FMP dye fluorescence) on addition of the test molecule [1]: dose-dependent decrease in cellular membrane potential; also recorded: dose-dependent decrease of membrane potential | FMP assay BR-HTC8 [1]: + | change of Fluo4-fluorescence / intracellular calcium on addition of the test molecule [2]: dose-dependent increase of Fluo4-fluorescence | Fluo-4 assay BR-HTC8 [2]: +

O=C(N[C@H](CO)[C@H](O)c1ccc([N+](=O)[O-])cc1)C(Cl)Cl [Chloramphenicole]
Fluo-4 assay BR-HTC8 [2]: +

CCN(CC)CCCC(C)Nc1ccnc2cc(Cl)ccc12 (centres unmarked) [Chloroquine]
FMP assay BR-HTC8 [1]: +

CC[N+](CC)(CC(=O)Nc1c(C)cccc1C)Cc1ccccc1.O=C([O-])c1ccccc1 [Denatonium benzoat]
Fluo-4 assay BR-HTC8 [2]: +

O=C(O[C@@H]1Cc2c(O)cc(O)cc2O[C@@H]1c1cc(O)c(O)c(O)c1)c1cc(O)c(O)c(O)c1 [EGCG]
Fluo-4 assay BR-HTC8 [2]: +

O=S(=O)(NCCNC/C=C/c1ccc(Br)cc1)c1cccc2cnccc12 [H89]
calcium response to saccharin in the presence of H89 ([2]; 0.5 μM H89, BR-HTC8): not reduced | calcium signalling on stimulation with salicin in the presence of H89 ([2]; 0.5 μM H89, BR-HTC8): slightly inhibited

COc1cc(OC2CCN(C(C)=O)CC2)ccc1C(=O)N1CCC(N2C(=O)OCc3ccccc32)CC1 [L371,257]
calcium signalling on stimulation with oxytocin in the presence of L371,257 ([2]; 40 nM L371,257, BR-HTC8): inhibited

CC1COc2c(N3CCN(C)CC3)c(F)cc3c(=O)c(C(=O)O)cn1c23 (centres unmarked) [Ofloxacine]
Fluo-4 assay BR-HTC8 [2]: +

Cc1ccccc1C(OCCN(C)C)c1ccccc1 (centres unmarked) [Orphenadrine]
Fluo-4 assay BR-HTC8 [2]: +

NC(=S)Nc1ccccc1 [PTC, phenylthiocarbamide]
FMP assay BR-HTC8 [1]: + | change of Fluo4-fluorescence / intracellular calcium on addition of the test molecule [2]: dose-dependent increase of Fluo4-fluorescence | Fluo-4 assay BR-HTC8 [2]: + | dose-dependent Fluo-4 calcium response in BR-HTC38 compared with parental BR-HTC8 (BR-HTC38 cells): enhanced

O=C1NS(=O)(=O)c2ccccc21 [Saccharin]
increase of Fluo4-fluorescence in control cells [3]: not in control cells | change of Fluo4-fluorescence / intracellular calcium on addition of the test molecule [2]: dose-dependent increase of Fluo4-fluorescence | Fluo-4 calcium response in the absence of extracellular Ca2+ ([2]; KH-buffer without Ca2+, BR-HTC8, molecule alone): cannot trigger a Ca^2+ response; also recorded: did not trigger increase of intracellular Ca^2+; also recorded: no response | increase of intracellular calcium in response to salicin when combined with saccharin ([2]; absence of extracellular calcium, increasing salicin with four fixed concentrations of saccharin): strongly enhanced | Fluo-4 assay BR-HTC8 [2]: + | dose-dependent Fluo-4 calcium response in BR-HTC38 compared with parental BR-HTC8 (BR-HTC38 cells): enhanced

COc1ccc2c(c1)CC[C@@H]1[C@@H]2CC[C@]2(C)[C@@H](NCCCCCCN3C(=O)C=CC3=O)CC[C@@H]12 [U73122]
calcium response to saccharin in the presence of U73122 ([2]; 5 μM U73122, BR-HTC8): not reduced | calcium signalling on stimulation with salicin in the presence of U73122 ([2]; 5 μM U73122, BR-HTC8): inhibited

CCCCC/C=C\C/C=C\CCCCCCCC(=O)O [linoleic acid]
increase of Fluo4-fluorescence in control cells [3]: not in control cells | change of Fluo4-fluorescence / intracellular calcium on addition of the test molecule [2]: dose-dependent increase of Fluo4-fluorescence

CCCCCCCC/C=C\CCCCCCCC(=O)O [oleic acid]
increase of Fluo4-fluorescence in control cells [3]: not in control cells | change of Fluo4-fluorescence / intracellular calcium on addition of the test molecule [2]: dose-dependent increase of Fluo4-fluorescence

CC[C@H](C)[C@@H]1NC(=O)[C@H](Cc2ccc(O)cc2)NC(=O)[C@@H](N)CSSC[C@@H](C(=O)N2CCC[C@H]2C(=O)N[C@@H](CC(C)C)C(=O)NCC(N)=O)NC(=O)[C@H](CC(N)=O)NC(=O)[C@H](CCC(N)=O)NC1=O [oxytocin]
change of cellular membrane potential (FLIPR FMP dye fluorescence) on addition of the test molecule [1]: dose-dependent decrease of membrane potential | change of Fluo4-fluorescence / intracellular calcium on addition of the test molecule [2]: dose-dependent increase of Fluo4-fluorescence
